Measurements reported in PubChem BioAssay AID248 (DTP/NCI, 2004).
Values joined by “and” are separate entries in the source; they are usually repeats but may differ in a detail not shown here. Equal entries are not always repeated. Inconclusive results and toxic doses are left out. Cut-off read from the data, not from the text of the source: active = T/C of 150% or more; inactive = T/C below 125%.

Tested on: L1210 leukemia ip in BDF1 mice, survival T/C
Assay: NCI In Vivo Anticancer Drug Screen. Data for tumor model L1210 Leukemia (intraperitoneal) in B6D2F1 (BDF1) mice
Conditions: endpoint: mean survival time, higher = longer survival
How it was run: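 Antitumor effect is assessed in tumor-bearing animals. Survival in the compound arm is compared with a vehicle-dosed control arm and expressed as their quotient.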

[1] = dose: 100.0 mg/kg/injection, schedule: Q01DX001 (ip), vehicle: saline
[2] = dose: 200.0 mg/kg/injection, schedule: Q01DX001 (ip), vehicle: saline
[3] = dose: 400.0 mg/kg/injection, schedule: Q01DX001 (ip), vehicle: saline
[4] = dose: 100.0 mg/kg/injection, schedule: Q04DX003 (ip), vehicle: saline with Tween-80
[5] = dose: 200.0 mg/kg/injection, schedule: Q04DX003 (ip), vehicle: saline with Tween-80
[6] = dose: 400.0 mg/kg/injection, schedule: Q04DX003 (ip), vehicle: saline with Tween-80

Measured: T/C

CC(C)C1C(=O)N2CCCC2C2(O)OC(C(=O)NCCc3c[nH]c4ccccc34)(C(C)C)C(=O)N12 (centres undefined)
inactive: dose: 6.25 mg/kg/injection, schedule: Q04DX003 (ip), vehicle: saline with Tween-80 98 % of control | dose: 12.5 mg/kg/injection, schedule: Q04DX003 (ip), vehicle: saline with Tween-80 111 % of control | dose: 25.0 mg/kg/injection, schedule: Q04DX003 (ip), vehicle: alcohol 98 % of control | dose: 25.0 mg/kg/injection, schedule: Q04DX003 (ip), vehicle: saline with Tween-80 101 % of control | dose: 50.0 mg/kg/injection, schedule: Q04DX003 (ip), vehicle: alcohol 105 % of control | dose: 50.0 mg/kg/injection, schedule: Q04DX003 (ip), vehicle: saline with Tween-80 98 % of control | dose: 100.0 mg/kg/injection, schedule: Q04DX003 (ip), vehicle: alcohol 98 % of control | dose: 200.0 mg/kg/injection, schedule: Q04DX003 (ip), vehicle: alcohol 98 % of control

Nc1nc2c(c(-c3ccc(Cl)cc3)n1)CN(CCCC(=O)O)C2=O
inactive: [1] 105 % of control | dose: 100.0 mg/kg/injection, schedule: Q04DX003 (ip), vehicle: saline 96 % of control | [2] 98 % of control | dose: 200.0 mg/kg/injection, schedule: Q04DX003 (ip), vehicle: saline 104 % of control | [3] 100 % of control | dose: 400.0 mg/kg/injection, schedule: Q04DX003 (ip), vehicle: saline 107 % of control

Cc1cc(Br)c2ccccc2c1NS(=O)(=O)c1ccccc1
inactive: dose: 100.0 mg/kg/injection, schedule: Q01DX009 (ip), vehicle: saline with Tween-80 100 % of control | [4] 109 % of control | dose: 200.0 mg/kg/injection, schedule: Q01DX009 (ip), vehicle: saline with Tween-80 90 % of control | [5] 100 % of control | dose: 400.0 mg/kg/injection, schedule: Q01DX009 (ip), vehicle: saline with Tween-80 92 % of control | [6] 105 % of control

Nc1cncc2ccccc12
inactive: dose: 25.0 mg/kg/injection, schedule: Q01DX009 (ip), vehicle: gum acacia 96 % of control | dose: 25.0 mg/kg/injection, schedule: Q04DX003 (ip), vehicle: gum acacia 100 % of control | dose: 50.0 mg/kg/injection, schedule: Q01DX009 (ip), vehicle: gum acacia 111 % of control | dose: 50.0 mg/kg/injection, schedule: Q04DX003 (ip), vehicle: gum acacia 98 % of control | dose: 100.0 mg/kg/injection, schedule: Q01DX009 (ip), vehicle: gum acacia 103 % of control | dose: 100.0 mg/kg/injection, schedule: Q04DX003 (ip), vehicle: gum acacia 102 % of control and 104 % of control

C=CCSC1=NC(=O)C(CCCC)C(=O)N1C (centres undefined)
inactive: dose: 75.0 mg/kg/injection, schedule: Q01DX001 (ip), vehicle: saline 88 % of control

CN(C)OC(=O)Nc1cccc([N+](=O)[O-])c1
inactive: dose: 100.0 mg/kg/injection, schedule: Q04DX002 (ip), vehicle: other 87 % of control | dose: 200.0 mg/kg/injection, schedule: Q04DX002 (ip), vehicle: other 102 % of control | dose: 400.0 mg/kg/injection, schedule: Q04DX002 (ip), vehicle: other 117 % of control

C[CH2][Sn](=[S])[S][Sn](=[S])[CH2]C
inactive: dose: 100.0 mg/kg/injection, schedule: Q04DX002 (ip), vehicle: saline with Tween-80 102 % of control | dose: 200.0 mg/kg/injection, schedule: Q04DX002 (ip), vehicle: saline with Tween-80 94 % of control | dose: 400.0 mg/kg/injection, schedule: Q04DX002 (ip), vehicle: saline with Tween-80 97 % of control

O=S(=O)(CCCl)c1ccc2ccccc2c1
inactive: dose: 25.0 mg/kg/injection, schedule: Q04DX002 (ip), vehicle: Klucel (hydroxypropylcellulose) (HPC) 100 % of control | dose: 50.0 mg/kg/injection, schedule: Q04DX002 (ip), vehicle: Klucel (hydroxypropylcellulose) (HPC) 104 % of control | dose: 100.0 mg/kg/injection, schedule: Q04DX002 (ip), vehicle: Klucel (hydroxypropylcellulose) (HPC) 96 % of control

COc1ccccc1CN1CCCN(Cc2ccccc2OC)C1c1ccc(N(CCCl)CCCl)cc1Cl
inactive: dose: 50.0 mg/kg/injection, schedule: Q01DX001 (ip), vehicle: carboxymethylcellulose (CMC) 95 % of control | dose: 100.0 mg/kg/injection, schedule: Q01DX001 (ip), vehicle: carboxymethylcellulose (CMC) 101 % of control | dose: 200.0 mg/kg/injection, schedule: Q01DX001 (ip), vehicle: carboxymethylcellulose (CMC) 98 % of control | dose: 400.0 mg/kg/injection, schedule: Q01DX001 (ip), vehicle: carboxymethylcellulose (CMC) 95 % of control

CC1(C)N=C(N)N=C(N)N1c1cccc(C(=O)c2ccccc2)c1
inactive: dose: 25.0 mg/kg/injection, schedule: Q01DX001 (ip), vehicle: saline with Tween-80 98 % of control | dose: 50.0 mg/kg/injection, schedule: Q01DX001 (ip), vehicle: saline with Tween-80 90 % of control

OC1(c2ccccc2)CCC1
inactive: dose: 62.0 mg/kg/injection, schedule: Q01DX009 (ip), vehicle: saline with Tween-80 91 % of control | dose: 125.0 mg/kg/injection, schedule: Q01DX009 (ip), vehicle: saline with Tween-80 99 % of control | dose: 250.0 mg/kg/injection, schedule: Q01DX009 (ip), vehicle: saline with Tween-80 97 % of control

CC(C)CCCC(=O)CCCCCCC(=O)CCN(O)C(=O)C(N)CO (centres undefined)
inactive: dose: 12.5 mg/kg/injection, schedule: Q01DX009 (ip), vehicle: acetone 93 % of control | dose: 25.0 mg/kg/injection, schedule: Q01DX009 (ip), vehicle: acetone 102 % of control | dose: 25.0 mg/kg/injection, schedule: Q04DX003 (ip), vehicle: acetone 95 % of control | dose: 50.0 mg/kg/injection, schedule: Q04DX003 (ip), vehicle: acetone 103 % of control | dose: 100.0 mg/kg/injection, schedule: Q01DX001 (ip), vehicle: acetone 97 % of control

CC1CCc2cc3c(cc2C1)S(=O)(=O)c1ccccc1-3 (centres undefined)
inactive: [1] 96 % of control | [2] 86 % of control | [3] 86 % of control

Cc1cc2c(cc1[N+](=O)[O-])OCCO2
inactive: [4] 93 % of control | [5] 89 % of control | [6] 88 % of control

CC12CCC(C(=N/O)/C1=N\O)C2(C)C (centres undefined)
inactive: dose: 20.0 mg/kg/injection, schedule: Q04DX003 (ip), vehicle: Klucel (hydroxypropylcellulose) (HPC) 106 % of control | dose: 25.0 mg/kg/injection, schedule: Q01DX009 (ip), vehicle: Klucel (hydroxypropylcellulose) (HPC) 107 % of control | dose: 40.0 mg/kg/injection, schedule: Q04DX003 (ip), vehicle: Klucel (hydroxypropylcellulose) (HPC) 103 % of control | dose: 50.0 mg/kg/injection, schedule: Q01DX009 (ip), vehicle: Klucel (hydroxypropylcellulose) (HPC) 107 % of control | dose: 80.0 mg/kg/injection, schedule: Q04DX003 (ip), vehicle: Klucel (hydroxypropylcellulose) (HPC) 105 % of control | dose: 100.0 mg/kg/injection, schedule: Q04DX003 (ip), vehicle: Klucel (hydroxypropylcellulose) (HPC) 96 % of control

OCCOc1ccc(-c2ccccc2)cc1
inactive: dose: 75.0 mg/kg/injection, schedule: Q04DX002 (ip), vehicle: Klucel (hydroxypropylcellulose) (HPC) 101 % of control | dose: 150.0 mg/kg/injection, schedule: Q04DX002 (ip), vehicle: Klucel (hydroxypropylcellulose) (HPC) 105 % of control | dose: 300.0 mg/kg/injection, schedule: Q04DX002 (ip), vehicle: Klucel (hydroxypropylcellulose) (HPC) 108 % of control

O=C(Nc1cccc(Cl)c1)C1CCCC1=Nc1cccc(Cl)c1 (centres undefined)
inactive: dose: 50.0 mg/kg/injection, schedule: Q01DX001 (ip), vehicle: saline 103 % of control | [1] 100 % of control | [2] 103 % of control | [3] 94 % of control
